Measurements from ChEMBL document CHEMBL1132267, “Synthesis and antibacterial properties of beta-diketone acrylate bioisosteres of pseudomonic acid A” (Bioorg Med Chem Lett, 1999).
Converted amounts (≈) assume the structure as drawn.

Legend:
Streptococcus pneumoniae = experiment: In vitro antibacterial activity against Streptococcus pneumoniae PU7; format: functional
Haemophilus influenzae = experiment: In vitro antibacterial activity against Haemophilus influenzae Q1; format: functional
Streptococcus pyogenes = experiment: In vitro antibacterial activity against Streptococcus pyogenes CN10; format: functional
Staphylococcus aureus = experiment: In vitro antibacterial activity against Staphylococcus aureus Oxford; format: functional
Moraxella catarrhalis = experiment: In vitro antibacterial activity against Moraxella catarrhalis 1502; format: functional
[1] = test system: Isoleucine--tRNA ligase (Streptococcus pneumoniae); experiment: In vitro antibacterial activity against isoleucyl-tRNA synthetase from Streptococcus pneumoniae PU7
[2] = test system: Isoleucine--tRNA ligase (Streptococcus pyogenes); experiment: In vitro antibacterial activity against isoleucyl-tRNA synthetase from Streptococcus pyogenes CN10
Mus musculus [3] = experiment: The area under curve in vivo in mouse blood level after subcutaneous administration at dose 50 mk/kg e-1; format: ADME, organism-based; conditions: sc
Homo sapiens = experiment: The compound was tested for its percentage serum binding affinity in human […]; format: organism-based
[4] = target: T1, Isoleucine--tRNA ligase (Staphylococcus aureus) (UniProt P41972); experiment: In vitro antibacterial activity against isoleucyl-tRNA synthetase from Staphylococcus aureus Oxford; format: functional
T1 sequence (whole entry): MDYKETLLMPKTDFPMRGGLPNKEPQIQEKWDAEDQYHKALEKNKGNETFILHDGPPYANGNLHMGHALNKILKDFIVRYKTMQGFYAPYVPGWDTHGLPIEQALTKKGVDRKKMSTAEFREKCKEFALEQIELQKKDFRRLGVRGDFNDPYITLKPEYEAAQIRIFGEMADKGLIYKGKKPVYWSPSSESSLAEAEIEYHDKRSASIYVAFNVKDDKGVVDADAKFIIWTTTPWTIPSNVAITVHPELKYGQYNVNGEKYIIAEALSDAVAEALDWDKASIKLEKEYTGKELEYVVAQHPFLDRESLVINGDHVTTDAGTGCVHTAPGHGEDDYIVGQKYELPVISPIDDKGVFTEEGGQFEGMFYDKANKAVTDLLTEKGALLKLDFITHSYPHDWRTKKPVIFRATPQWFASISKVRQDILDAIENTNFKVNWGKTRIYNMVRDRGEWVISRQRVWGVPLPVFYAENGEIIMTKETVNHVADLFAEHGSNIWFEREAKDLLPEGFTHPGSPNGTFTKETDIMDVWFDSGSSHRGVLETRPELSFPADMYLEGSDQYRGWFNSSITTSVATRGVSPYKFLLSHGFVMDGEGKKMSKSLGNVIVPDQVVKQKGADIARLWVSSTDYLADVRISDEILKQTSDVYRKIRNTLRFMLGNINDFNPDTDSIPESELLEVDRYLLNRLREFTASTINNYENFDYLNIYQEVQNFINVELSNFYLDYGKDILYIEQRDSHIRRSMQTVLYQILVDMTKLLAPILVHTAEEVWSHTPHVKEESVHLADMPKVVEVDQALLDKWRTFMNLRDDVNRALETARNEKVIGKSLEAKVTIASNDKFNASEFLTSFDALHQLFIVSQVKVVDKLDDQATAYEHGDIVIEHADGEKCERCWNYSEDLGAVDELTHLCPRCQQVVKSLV

Mus musculus [5] = experiment: Concentration required to protect 50% of the mice from death after s.c. administration of compound tested in vivo; format: functional
Mus musculus [6] = experiment: Concentration required to protect 50% of the mice from death after oral administration of compound tested in vivo; format: functional
[7] = test system: Isoleucine--tRNA ligase (Moraxella catarrhalis); experiment: In vitro antibacterial activity against isoleucyl-tRNA synthetase from Moraxella catarrhalis 1502
Mus musculus [8] = experiment: The area under curve in vivo in mouse blood level after oral administration at dose 50 mk/kg e-1; format: ADME, organism-based
[9] = test system: Isoleucine--tRNA ligase (Haemophilus influenzae); experiment: In vitro antibacterial activity against isoleucyl-tRNA synthetase from Haemophilus influenzae Q1
Mus musculus [10] = experiment: The compound was tested for its percentage serum binding affinity in mouse […]; format: functional

Structure (SMILES) | MIC (Streptococcus pneumoniae) | MIC (Haemophilus influenzae) | MIC (Streptococcus pyogenes) | MIC (Staphylococcus aureus) | MIC (Moraxella catarrhalis) | MIC [1] | MIC [2] | AUC (Mus musculus [3]) | Bound (Homo sapiens) | MIC [4] | CD50 (Mus musculus [5]) | CD50 (Mus musculus [6]) | MIC [7] | AUC (Mus musculus [8]) | MIC [9] | Bound (Mus musculus [10])
CCCCC(=O)CC(=O)C[C@@H]1OC[C@H](C[C@@H]2O[C@H]2[C@@H](C)[C@H](C)O)[C@@H](O)[C@H]1O | 8 µg/mL (≈ 20.7 µM) | 0.5 µg/mL (≈ 1.29 µM) | 2 µg/mL (≈ 5.17 µM) | 8 µg/mL (≈ 20.7 µM) | 2 µg/mL (≈ 5.17 µM) |  |  |  |  |  |  |  |  |  |  | 
C[C@H]([C@@H]1O[C@H]1C[C@H]1CO[C@@H](CC(=O)CC(=O)c2ccoc2)[C@H](O)[C@@H]1O)[C@H](C)O | 2 µg/mL (≈ 5.04 µM) | 0.13 µg/mL (≈ 0.328 µM) | 1 µg/mL (≈ 2.52 µM) | 1 µg/mL (≈ 2.52 µM) | 2 µg/mL (≈ 5.04 µM) |  |  |  |  |  |  |  |  |  |  | 
COc1ccc(/C=C/C(=O)C[C@@H]2OC[C@H](C[C@@H]3O[C@H]3[C@@H](C)[C@H](C)O)[C@@H](O)[C@H]2O)cc1 | 8 µg/mL (≈ 19 µM) | 1 µg/mL (≈ 2.38 µM) | 8 µg/mL (≈ 19 µM) | 128 µg/mL (≈ 304 µM) | 16 µg/mL (≈ 38 µM) |  |  |  |  |  |  |  |  |  |  | 
C[C@H]([C@@H]1O[C@H]1C[C@H]1CO[C@@H](CC(=O)CC(=O)c2ccc(F)cc2)[C@H](O)[C@@H]1O)[C@H](C)O |  |  |  |  |  | 0.13 µg/mL (≈ 0.306 µM) | 0.25 µg/mL (≈ 0.589 µM) | 6800 ng·h/mL | 80% | 0.5 µg/mL (≈ 1.18 µM) | 12 mg/kg | 19 mg/kg | 0.5 µg/mL (≈ 1.18 µM) | 4930 ng·h/mL | 0.06 µg/mL (≈ 0.141 µM) | 
COc1ccc(C(=O)/C=C(\C)C[C@@H]2OC[C@H](C[C@@H]3O[C@H]3[C@@H](C)[C@H](C)O)[C@@H](O)[C@H]2O)cc1 |  |  |  |  |  | 0.25 µg/mL (≈ 0.575 µM) | 0.25 µg/mL (≈ 0.575 µM) | 5600 ng·h/mL | 96% | 0.5 µg/mL (≈ 1.15 µM) | 12 mg/kg | 18 mg/kg | 0.25 µg/mL (≈ 0.575 µM) | 1770 ng·h/mL | 0.03 µg/mL (≈ 0.069 µM) | 79%
C/C(=C\C(=O)OCCCCCCCCC(=O)O)C[C@@H]1OC[C@H](C[C@@H]2O[C@H]2[C@@H](C)[C@H](C)O)[C@@H](O)[C@H]1O [MUPIROCIN] | 0.13 µg/mL (≈ 0.26 µM) | 0.06 µg/mL (≈ 0.12 µM) | 0.13 µg/mL (≈ 0.26 µM) | 0.13 µg/mL (≈ 0.26 µM) | 0.13 µg/mL (≈ 0.26 µM) |  |  |  |  |  |  |  |  |  |  | 
C[C@H]([C@@H]1O[C@H]1C[C@H]1CO[C@@H](CC(=O)CC(=O)c2cnn(C)c2)[C@H](O)[C@@H]1O)[C@H](C)O | 1 µg/mL (≈ 2.44 µM) | 0.13 µg/mL (≈ 0.317 µM) | 1 µg/mL (≈ 2.44 µM) | 4 µg/mL (≈ 9.74 µM) | 0.5 µg/mL (≈ 1.22 µM) |  |  |  |  |  |  |  |  |  |  | 
C[C@H]([C@@H]1O[C@H]1C[C@H]1CO[C@@H](CC(=O)CC(=O)c2ccc(N(C)C)nc2)[C@H](O)[C@@H]1O)[C@H](C)O |  |  |  |  |  | 0.5 µg/mL (≈ 1.11 µM) | 1 µg/mL (≈ 2.22 µM) | 13300 ng·h/mL | 84% | 1 µg/mL (≈ 2.22 µM) | 12 mg/kg | 23 mg/kg | 1 µg/mL (≈ 2.22 µM) | 7180 ng·h/mL | 0.06 µg/mL (≈ 0.133 µM) | 66%
C[C@H]([C@@H]1O[C@H]1C[C@H]1CO[C@@H](CC(=O)CC(=O)c2cnc(N(C)C)nc2)[C@H](O)[C@@H]1O)[C@H](C)O | 1 µg/mL (≈ 2.21 µM) | 0.25 µg/mL (≈ 0.554 µM) | 1 µg/mL (≈ 2.21 µM) | 2 µg/mL (≈ 4.43 µM) | 2 µg/mL (≈ 4.43 µM) |  |  |  |  |  |  |  |  |  |  | 
COc1ccc(C(=O)CC(=O)C[C@@H]2OC[C@H](C[C@@H]3O[C@H]3[C@@H](C)[C@H](C)O)[C@@H](O)[C@H]2O)cc1 |  |  |  |  |  | 0.25 µg/mL (≈ 0.573 µM) | 0.25 µg/mL (≈ 0.573 µM) | 14900 ng·h/mL | 75% | 0.5 µg/mL (≈ 1.15 µM) | 3.8 mg/kg | 28 mg/kg | 0.25 µg/mL (≈ 0.573 µM) | 5920 ng·h/mL | 0.06 µg/mL (≈ 0.137 µM) | 51%

Second part, led by results:

MIC (Streptococcus pneumoniae) | MIC (Haemophilus influenzae) | MIC (Streptococcus pyogenes) | MIC (Staphylococcus aureus) | MIC (Moraxella catarrhalis) | Structure (SMILES) | MIC [1] | MIC [2] | AUC (Mus musculus [3]) | Bound (Homo sapiens) | MIC [4] | CD50 (Mus musculus [5]) | CD50 (Mus musculus [6]) | MIC [7] | AUC (Mus musculus [8]) | MIC [9] | Bound (Mus musculus [10])
0.5 µg/mL (≈ 1.23 µM) | 0.25 µg/mL (≈ 0.615 µM) | 0.5 µg/mL (≈ 1.23 µM) | 1 µg/mL (≈ 2.46 µM) | 1 µg/mL (≈ 2.46 µM) | C[C@H]([C@@H]1O[C@H]1C[C@H]1CO[C@@H](CC(=O)CC(=O)c2ccccc2)[C@H](O)[C@@H]1O)[C@H](C)O |  |  |  |  |  |  |  |  |  |  | 
1 µg/mL (≈ 1.97 µM) | 1 µg/mL (≈ 1.97 µM) | 0.5 µg/mL (≈ 0.983 µM) | 1 µg/mL (≈ 1.97 µM) | 0.5 µg/mL (≈ 0.983 µM) | CCOC(OCC)c1ccc(C(=O)CC(=O)C[C@@H]2OC[C@H](C[C@@H]3O[C@H]3[C@@H](C)[C@H](C)O)[C@@H](O)[C@H]2O)cc1 |  |  |  |  |  |  |  |  |  |  | 
0.13 µg/mL (≈ 0.297 µM) | 0.13 µg/mL (≈ 0.297 µM) | 0.13 µg/mL (≈ 0.297 µM) | 1 µg/mL (≈ 2.29 µM) | 0.25 µg/mL (≈ 0.571 µM) | COc1ccc(C(=O)CC(=O)C[C@@H]2OC[C@H](C[C@@H]3O[C@H]3[C@@H](C)[C@H](C)O)[C@@H](O)[C@H]2O)cn1 |  |  |  |  |  |  |  |  |  |  | 
0.5 µg/mL (≈ 1.22 µM) | 0.13 µg/mL (≈ 0.317 µM) | 0.5 µg/mL (≈ 1.22 µM) | 2 µg/mL (≈ 4.87 µM) | 2 µg/mL (≈ 4.87 µM) | C[C@H]([C@@H]1O[C@H]1C[C@H]1CO[C@@H](CC(=O)CC(=O)C2=CCCCC2)[C@H](O)[C@@H]1O)[C@H](C)O |  |  |  |  |  |  |  |  |  |  | 
0.5 µg/mL (≈ 1.21 µM) | 0.13 µg/mL (≈ 0.315 µM) | 1 µg/mL (≈ 2.42 µM) | 1 µg/mL (≈ 2.42 µM) | 1 µg/mL (≈ 2.42 µM) | C[C@H]([C@@H]1O[C@H]1C[C@H]1CO[C@@H](CC(=O)CC(=O)c2ccsc2)[C@H](O)[C@@H]1O)[C@H](C)O |  |  |  |  |  |  |  |  |  |  | 
0.5 µg/mL (≈ 1.11 µM) | 0.06 µg/mL (≈ 0.133 µM) | 1 µg/mL (≈ 2.22 µM) | 2 µg/mL (≈ 4.45 µM) | 0.5 µg/mL (≈ 1.11 µM) | C[C@H]([C@@H]1O[C@H]1C[C@H]1CO[C@@H](CC(=O)CC(=O)c2ccc(N(C)C)cc2)[C@H](O)[C@@H]1O)[C@H](C)O |  |  |  |  |  |  |  |  |  |  | 
0.25 µg/mL (≈ 0.595 µM) | 0.13 µg/mL (≈ 0.309 µM) | 0.5 µg/mL (≈ 1.19 µM) | 1 µg/mL (≈ 2.38 µM) | 2 µg/mL (≈ 4.76 µM) | COc1ccc(C(=O)/C=C/C[C@@H]2OC[C@H](C[C@@H]3O[C@H]3[C@@H](C)[C@H](C)O)[C@@H](O)[C@H]2O)cc1 |  |  |  |  |  |  |  |  |  |  | 
0.25 µg/mL (≈ 0.579 µM) | 0.06 µg/mL (≈ 0.139 µM) | 0.13 µg/mL (≈ 0.301 µM) | 2 µg/mL (≈ 4.64 µM) | 0.5 µg/mL (≈ 1.16 µM) | C[C@H]([C@@H]1O[C@H]1C[C@H]1CO[C@@H](CC(=O)CC(=O)c2ccc(C#N)cc2)[C@H](O)[C@@H]1O)[C@H](C)O |  |  |  |  |  |  |  |  |  |  | 
